Columns and labels:
α-amylase = experiment: In vitro α-amylase inhibitory assay (CNP-G3 substrate); type: biochemical; conditions: three independent experiments; acarbose positive control; read-out: IC50 Values (µM ± SD) α-Amylase
Description: (§1) The IC50 values (μM) represented in Table 3 were calculated from the log dose-inhibition curves and are expressed as means ± standard deviations (SD) of three independent experiments. […] Inhibitors of α-glucosidase with mild inhibitory activity against α-amylase, on the other hand, constitute one of the major therapeutic strategies for the treatment of T2DM.
The α-amylase inhibitory assay was performed in 96-well microplates using a final volume of 200 μL, following a procedure described in the literature study. The enzyme assay was performed with a phosphate buffer ([…]) containing 0.02% NaN3 and adjusted to pH 6.0 with 2.0 M phosphoric acid. […] The enzyme solution (2.0 u/mL α-amylase, 5 µL); phosphate buffer ([…], pH 6.0; 175 µL); and 10 µL test sample were incubated at 37 °C for 10 min. After pre-incubation, 10 µL of 10 mM of 2-chloro-4-nitrophenyl-α-D-maltotrioside (CNP-G3) was added to each of the wells containing reaction mixtures to initiate the reaction. The absorbance was measured at 405 nm using a Bio-Rad microplate reader. The IC50 values were calculated using the AAT Bioquest online calculator.

α-glucosidase = experiment: In vitro α-glucosidase inhibitory assay (PNP-G substrate); type: biochemical; conditions: for SI (selectivity index): SI = IC50(α-glucosidase)/IC50(α-amylase); for IC50: three independent experiments, acarbose positive control, read-out: IC50 Values (µM ± SD) α-Glucosidase
Description: as §1
All the tests and analyses were performed in triplicates following a literature method described in our previous study. The stock solutions of the test compounds (200 µM) were prepared in DMSO, followed by dilution with a 100 mM phosphate buffer to obtain the concentrations of 100 µM. […] The enzyme solution (0.48 u/mL α-glucosidase, 17 µL); phosphate buffer (100 mM, pH 6.8; 50 µL); and test sample in DMSO (17 µL) were incubated at 37 °C for 10 min. After pre-incubation, 17 µL of 2 mM p-nitrophenyl-α-d-glucopyranoside (PNP-G) was added to each of the wells containing reaction mixtures to initiate the reaction. The absorbance was measured at 405 nm using a Bio-Rad microplate reader. The IC50 concentration was calculated using the AAT Bioquest online calculator.

Row | Compound | IC50 (α-amylase) | SI (selectivity index) (α-glucosidase) | IC50 (α-glucosidase) | melting point
1 | Oc1ccc(Br)cc1C1=Nc2ccccc2SC(c2ccc(Cl)cc2)C1 (centres unmarked) [Compound 2c, 4-Bromo-2-((E)-2,3-dihydro-2-(4-chlorophenyl)benzo[b][1,5]thiazepine-4-yl)phenol] | 22.86 ± 0.04 µM | 0.12 | 2.69 ± 0.27 µM | 167 to 172 °C
2 | Oc1ccc(Br)cc1C1=Nc2ccccc2SC(c2ccccc2)C1 (centres unmarked) [Compound 2a, 4-Bromo-2-((E)-2,3-dihydro-2-phenylbenzo[b][1,5]thiazepine-4-yl)phenol] | 20.87 ± 0.08 µM | – | 6.7 ± 0.15 µM | 128 to 137 °C
3 | CC(C)c1ccc(C2CC(c3cc(Br)ccc3O)=Nc3ccccc3S2)cc1 (centres unmarked) [Compound 2f, 4-Bromo-2-((E)-2,3-dihydro-2-(4-isopropylphenyl)benzo[b][1,5]thiazepine-4-yl)phenol] | 9.71 ± 0.5 µM | 0.67 | 6.54 ± 0.11 µM | 126 to 131 °C
4 | COc1cccc(C2CC(c3cc(Br)ccc3O)=Nc3ccccc3S2)c1 (centres unmarked) [Compound 2d, 4-Bromo-2-((E)-2,3-dihydro-2-(3-methoxyphenyl)benzo[b][1,5]thiazepine-4-yl)phenol] | 46.16 ± 0.31 µM | 0.29 | 13.2 ± 1 µM | 161 to 167 °C
5 | Oc1ccc(Br)cc1C1=Nc2ccccc2SC(c2ccc(F)cc2)C1 (centres unmarked) [Compound 2b, 4-Bromo-2-((E)-2,3-dihydro-2-(4-fluorophenyl)benzo[b][1,5]thiazepine-4-yl)phenol] | 15.85 ± 0.05 µM | 1.09 | 17.2 ± 0.07 µM | 128 to 134 °C
6 | COc1ccc(C2CC(c3cc(Br)ccc3O)=Nc3ccccc3S2)cc1 (centres unmarked) [Compound 2e, 4-Bromo-2-((E)-2,3-dihydro-2-(4-methoxyphenyl)benzo[b][1,5]thiazepine-4-yl)phenol] | 55.14 ± 0.19 µM | 0.29 | 15.87 ± 0.13 µM | 131 to 136 °C
